Data from ChEMBL document CHEMBL1201862, “PubChem BioAssay data set” (2004).
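Protocol summary: plate cells (96-well), add compound at 5 concentrations, incubate 48 h, interpolate endpoints linearly. GI50: concentration for 50% inhibition of growth.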 Calls of active or inactive are those of the source. Cut-off read from the data, not from the text of the source: active = GI50 up to about 1.1 µM and inactive = higher.

Key:
Assay in all cases: growth of human tumour cells (NCI), 48 h
HCT-116 = test system: HCT-116
TK-10 = test system: TK-10
HL-60 = test system: HL-60
786-0 = test system: 786-0
KM12 = test system: KM12
OVCAR-4 = test system: OVCAR-4
HOP-62 = test system: HOP-62
HCC 2998 = test system: HCC 2998
OVCAR-8 = test system: OVCAR-8
EKVX = test system: EKVX
OVCAR-5 = test system: OVCAR-5
MOLT-4 = test system: MOLT-4
SW-620 = test system: SW-620
CAKI-1 = test system: CAKI-1
COLO 205 = test system: COLO 205
SNB-19 = test system: SNB-19
A549 = test system: A549
UO-31 = test system: UO-31
Malme-3M = test system: Malme-3M
OVCAR-3 = test system: OVCAR-3

With `CC(=NNC(=S)Nc1ccccc1C)c1cccc(C(C)=NNC(=S)Nc2ccccc2C)n1` the GI50 (HCT-116) was 18.4 µM (inactive), the GI50 (TK-10) was 23.7 µM (inactive) and the GI50 (HL-60) was 19.7 µM (inactive). For the same compound, the GI50 (786-0) was 4.13 µM (inactive), the GI50 (KM12) was 24 µM (inactive) and the GI50 (OVCAR-4) was 0.321 µM (active). For the same compound, the GI50 (HOP-62) was 6.56 µM (inactive), the GI50 (HCC 2998) was > 100 µM (inactive) and the GI50 (OVCAR-8) was 17.4 µM (inactive). The GI50 (EKVX) was 76 µM (inactive), the GI50 (OVCAR-5) was > 100 µM (inactive) and the GI50 (MOLT-4) was 14.1 µM (inactive). The GI50 (SW-620) was 57.5 µM (inactive), the GI50 (CAKI-1) was 42.9 µM (inactive) and the GI50 (COLO 205) was 10.9 µM (inactive). For the same compound, the GI50 (SNB-19) was > 100 µM (inactive), the GI50 (A549) was 24.2 µM (inactive) and the GI50 (UO-31) was 45.9 µM (inactive). For the same compound, the GI50 (Malme-3M) was 15.5 µM (inactive).
With `Cc1ccc2c(c1)C(=O)C1(C2)Cc2ccc(C)cc2C1=O` the GI50 (HCT-116) was > 100 µM (inactive), the GI50 (TK-10) was > 100 µM (inactive) and the GI50 (HL-60) was > 100 µM (inactive). The GI50 (786-0) was > 100 µM (inactive), the GI50 (OVCAR-4) was > 100 µM (inactive) and the GI50 (HOP-62) was > 100 µM (inactive). The GI50 (HCC 2998) was > 100 µM (inactive), the GI50 (OVCAR-8) was > 100 µM (inactive) and the GI50 (EKVX) was > 100 µM (inactive). The GI50 (OVCAR-3) was > 100 µM (inactive), the GI50 (OVCAR-5) was > 100 µM (inactive) and the GI50 (MOLT-4) was > 100 µM (inactive). The GI50 (SW-620) was > 100 µM (inactive), the GI50 (CAKI-1) was > 100 µM (inactive) and the GI50 (SNB-19) was > 100 µM (inactive). The GI50 (A549) was > 100 µM (inactive), the GI50 (UO-31) was > 100 µM (inactive) and the GI50 (Malme-3M) was > 100 µM (inactive).
`COc1cc(OC)cc(Oc2nc3ccc(C(F)(F)F)cc3nc2-c2ccccc2)c1` was tested, and the GI50 (HCT-116) was > 100 µM (inactive), the GI50 (TK-10) was > 100 µM (inactive) and the GI50 (HL-60) was > 100 µM (inactive). For the same compound, the GI50 (786-0) was > 100 µM (inactive), the GI50 (KM12) was > 100 µM (inactive) and the GI50 (OVCAR-4) was > 100 µM (inactive). For the same compound, the GI50 (HOP-62) was > 100 µM (inactive), the GI50 (HCC 2998) was > 100 µM (inactive) and the GI50 (OVCAR-8) was > 100 µM (inactive). The GI50 (EKVX) was > 100 µM (inactive), the GI50 (OVCAR-3) was > 100 µM (inactive) and the GI50 (OVCAR-5) was > 100 µM (inactive). For the same compound, the GI50 (MOLT-4) was > 100 µM (inactive), the GI50 (SW-620) was > 100 µM (inactive) and the GI50 (CAKI-1) was > 100 µM (inactive). The GI50 (COLO 205) was > 100 µM (inactive), the GI50 (A549) was > 100 µM (inactive) and the GI50 (UO-31) was > 100 µM (inactive). For the same compound, the GI50 (Malme-3M) was > 100 µM (inactive).
For `COc1c(CCl)cc(-c2cc(=O)c3ccccc3s2)cc1CCl`, the GI50 (HCT-116) was 5.58 µM (inactive), the GI50 (TK-10) was 26.9 µM (inactive) and the GI50 (HL-60) was 2.59 µM (inactive). The GI50 (786-0) was 0.65 µM (active), the GI50 (KM12) was 3.33 µM (inactive) and the GI50 (OVCAR-4) was 3.58 µM (inactive). The GI50 (HOP-62) was 10.6 µM (inactive), the GI50 (HCC 2998) was 2.29 µM (inactive) and the GI50 (OVCAR-8) was 15 µM (inactive). The GI50 (EKVX) was > 100 µM (inactive), the GI50 (OVCAR-3) was 11.5 µM (inactive) and the GI50 (OVCAR-5) was > 100 µM (inactive). The GI50 (MOLT-4) was 1.91 µM (inactive), the GI50 (CAKI-1) was 7.62 µM (inactive) and the GI50 (COLO 205) was 3.33 µM (inactive). The GI50 (SNB-19) was 29.3 µM (inactive), the GI50 (A549) was 37.8 µM (inactive) and the GI50 (UO-31) was 1.95 µM (inactive). For the same compound, the GI50 (Malme-3M) was 1.5 µM (inactive).
In the case of `O=C(O)c1nc(-c2ccc(Cl)c(Cl)c2)nc2ccc(Cl)cc12`, the GI50 (HCT-116) is reported as 66.7 µM (inactive), the GI50 (TK-10) is reported as 44.8 µM (inactive) and the GI50 (HL-60) is reported as 16.6 µM (inactive). For the same compound, the GI50 (786-0) was 48.4 µM (inactive), the GI50 (KM12) was > 100 µM (inactive) and the GI50 (HOP-62) was 38.2 µM (inactive). For the same compound, the GI50 (HCC 2998) was > 100 µM (inactive), the GI50 (OVCAR-8) was 70.6 µM (inactive) and the GI50 (EKVX) was > 100 µM (inactive). For the same compound, the GI50 (OVCAR-3) was 51.9 µM (inactive), the GI50 (OVCAR-5) was > 100 µM (inactive) and the GI50 (MOLT-4) was 40.8 µM (inactive). For the same compound, the GI50 (SW-620) was > 100 µM (inactive), the GI50 (CAKI-1) was 73.1 µM (inactive) and the GI50 (COLO 205) was > 100 µM (inactive). The GI50 (SNB-19) was 51.9 µM (inactive), the GI50 (A549) was > 100 µM (inactive) and the GI50 (UO-31) was > 100 µM (inactive). For the same compound, the GI50 (Malme-3M) was > 100 µM (inactive).
`CC(C)(C)O/N=C/c1cc(NC(=S)c2ccsc2)ccc1Cl` was tested, and the GI50 (HCT-116) was 11.4 µM (inactive), the GI50 (TK-10) was 13.7 µM (inactive) and the GI50 (HL-60) was 17.2 µM (inactive). The GI50 (786-0) was 16.2 µM (inactive), the GI50 (KM12) was 9.89 µM (inactive) and the GI50 (OVCAR-4) was 14.6 µM (inactive). For the same compound, the GI50 (HOP-62) was 16 µM (inactive), the GI50 (HCC 2998) was 14.5 µM (inactive) and the GI50 (OVCAR-8) was 13.1 µM (inactive). The GI50 (EKVX) was 11.9 µM (inactive), the GI50 (OVCAR-3) was 14.9 µM (inactive) and the GI50 (OVCAR-5) was 17.7 µM (inactive). The GI50 (MOLT-4) was 5.71 µM (inactive), the GI50 (SW-620) was 17.2 µM (inactive) and the GI50 (CAKI-1) was 16.6 µM (inactive). For the same compound, the GI50 (COLO 205) was 14.9 µM (inactive), the GI50 (A549) was 17.5 µM (inactive) and the GI50 (UO-31) was 12.2 µM (inactive). For the same compound, the GI50 (Malme-3M) was 14.3 µM (inactive).
With `CC(C)[C@H](CCl)NC(=O)c1cccc(C(=O)N[C@H](CCl)C(C)C)n1` (stereo in doubt) the GI50 (HCT-116) was > 100 µM (inactive), the GI50 (TK-10) was > 100 µM (inactive) and the GI50 (HL-60) was > 100 µM (inactive). The GI50 (786-0) was > 100 µM (inactive), the GI50 (KM12) was > 100 µM (inactive) and the GI50 (OVCAR-4) was > 100 µM (inactive). The GI50 (HOP-62) was > 100 µM (inactive), the GI50 (HCC 2998) was > 100 µM (inactive) and the GI50 (EKVX) was > 100 µM (inactive). For the same compound, the GI50 (OVCAR-3) was > 100 µM (inactive), the GI50 (OVCAR-5) was > 100 µM (inactive) and the GI50 (MOLT-4) was > 100 µM (inactive). For the same compound, the GI50 (SW-620) was > 100 µM (inactive), the GI50 (CAKI-1) was > 100 µM (inactive) and the GI50 (COLO 205) was > 100 µM (inactive). The GI50 (SNB-19) was > 100 µM (inactive), the GI50 (A549) was > 100 µM (inactive) and the GI50 (UO-31) was > 100 µM (inactive). For the same compound, the GI50 (Malme-3M) was > 100 µM (inactive).
